{
  "source": "patent US12168010B2",
  "about": "“Use of co-enzyme antagonists to slow metabolism” (priority 2020, dated 2024)",
  "key": {"[1]": {"conditions": "rat, in vivo, po", "description": "This means that there is a very efficient cleavage of B-OT into OT, and a high percentage amount of OT is present in the blood. Thus, B-OT is a pharmacokinetically good and orally applicable substance that allows good and efficient delivery of OT. Since OT usually must/should be administered intraperitoneally, the oral administration of B-OT represents an important advantage in comparison. The bioavailability and absorption of B-OT is also more suitable for human therapy due to the more lipophilic basic structure of B-OT compared to OT. Compared to OT, B-OT is thus better, easier and safer to use as a drug."}, "[2]": {"assay": "Study in dogs on the conversion of B-OT to OT (toxicokinetics of OT in plasma, tolerability)", "assay_type": "in vivo, dogs (Beagle breed)", "procedure": "FIG. 1: Change in individual plasma concentrations of OT with time (over 24 hours) in male beagle dogs. The y-axis indicates—the plasma concentration in ng/ml. • On the x-axis the time is indicated in hours (h=hours) • (a) Change in individual plasma concentrations on day 1 after administration of a single dose of B-OT in an amount of 1 mg/kg/day. • The symbols mean: • —⋄—=dog no. 3001 • —□—=dog no. 3002 • (b) Change in individual plasma concentrations on day 1 after administration of a single dose of B-OT in an amount of 0.5 mg/kg/day. • The symbols mean: • —Δ—=dog no. 4001 • —∘—=dog no. 4002 • (c) Change in individual plasma concentrations at day 7 after seven days of administration of single doses of B-OT in an amount of 0.5 mg/kg/day. • The symbols mean: • —Δ—=dog no. 4001 • —∘—=dog no. […] • (d) Change in mean plasma concentrations on day 1 after administration of a single dose of B-OT at 1 mg/kg/day, and on day 1 and day 7 after daily administration of single doses of B-OT in an amount of 0.5 mg/kg/day. • The symbols mean: • —□—=group 3, 1.0 mg/kg/day, day 1 • —Δ—=Group 4, 0.5 mg/kg/day, day 1. • —∘—=group 4, 0.5 mg/kg/day, day 7.\nMale and female dogs (Beagle breed) were administered B-OT (benfo-oxythiamine) orally once daily for periods of one to seven days in amounts of 1 mg/kg/day or 0.5 mg/kg/day.\nThe toxicokinetics of the active metabolite OT (oxythiamine) was determined in plasma samples obtained on the first day “Day 1” and on the seventh day “Day 7” after the start of administration. The measurement results obtained are shown graphically in FIGS. 1 (a) to (d)."}, "[3]": {"assay": "Change in pulse beat (heart rate) in dogs after administration of B-OT", "assay_type": "in vivo", "conditions": "over 24 hours, B-OT 0.05, 0.15, 0.5 mg/kg/day", "procedure": "FIG. 2: Graph showing the change in plus beat with time in dogs after administration of different amounts (doses) of B-OT. On the y-axis, the pulse beat (heart rate) is given in beats per minute (bpm). On the x-axis, the time is given in hours. • The symbols mean: • —●=0 mg/kg/day—Benfooxythiamine=0 mg/kg/day—B-OT • —□—=0.05 mg/kg/day—Benfooxythiamine=0.05 mg/kg/day—B-OT • —Δ—=0.15 mg/kg/day—Benfooxythiamine=0.15 mg/kg/day—B-OT • −⋄—=0.5 mg/kg/day—Benfooxythiamine=0.5 mg/kg/day—B-OT\nBy slowing down (throttling) the metabolism, GSSV also causes a reduction in the energy released with it. The body attempts to compensate for the lower energy release by increasing the pulse rate in order to transport more oxygen into the body so that more energy can be released as a result. The increase in the patient's pulse beat is an indication and a suitable parameter that GSSV has inhibited energy release and to what extent. If there is a sharp increase in pulse rate, e.g., in a person a pulse rate above 90, countermeasures may be necessary to increase energy release again."}, "[4]": {"assay": "Comparison of B-OT amounts per kg body weight in dogs and humans versus rats and mice", "assay_type": "in vivo"}, "[5]": {"system": "SARS-CoV-2", "assay": "Curative trials: B-OT in addition to standard therapy in patients with covid-19 pneumonia"}, "[6]": {"assay": "In vivo pharmacokinetics: oxythiamine in the brain after B-OT administration"}, "[7]": {"conditions": "all patients with additional B-OT therapy"}},
  "note": "“Also recorded” adds a separate entry of the source.",
  "data": [
    {"compound": "C/C(=C(/CCOP(=O)(O)O)SC(=O)c1ccccc1)N(C=O)Cc1cnc(C)[nH]c1=O", "note": "[B-OT, benfo-oxythiamine]", "values": [
      {"measurement": "B-OT (prodrug form) measurable in the blood", "setting": "[1]", "value": 0, "unit": "%"},
      {"measurement": "share of total amount of B-OT administered measurable in the blood in the form of oxythiamine (OT)", "setting": "[1]", "value": 44, "unit": "%"},
      {"measurement": "behavior and physical condition", "setting": "[2]; dog, in vivo", "value": "No relevant abnormalities"},
      {"measurement": "body weight", "setting": "[2]; dog, in vivo", "value": "no significant variations in body weight"},
      {"measurement": "systemic exposure to OT / B-OT", "setting": "[2]; dog, in vivo, po", "value": "exposed to the active metabolite OT but not to the preform (prodrug) B-OT"},
      {"measurement": "tolerability of treatment", "setting": "[2]; dogs, oral B-OT 1 or 0.5 mg/kg/day, one to seven days", "value": "well tolerated"},
      {"measurement": "pulse beat (heart rate)", "setting": "[3]", "value": "significant increase in pulse beat"},
      {"measurement": "reaction of dogs and humans to B-OT amounts per kg applied to rats and mice", "setting": "[4]; rodent amounts per kilogram body weight used in dogs and humans", "value": "in many cases led to death"},
      {"measurement": "dose usable in humans and dogs compared to published amounts used in rats and mice", "setting": "[4]; to avoid serious, sometimes fatal, courses", "value": "approximately two hundredfold lower dose"},
      {"measurement": "viral pneumonia infiltrates in lung computed tomography", "setting": "[5]; after 7 days of B-OT therapy versus before", "value": "marked decrease in infiltrates; also recorded: marked decrease of infiltrates; also recorded: significant decrease in the previously pronounced infiltrates"},
      {"measurement": "C-reactive Protein (CRP)", "setting": "[5]; [7]", "value": "significant reduction"},
      {"measurement": "Interleukin-6 (IL-6)", "setting": "[5]; [7]", "value": "significant reduction"},
      {"measurement": "required inpatient stay", "setting": "[5]; compared with the overall collective of more than 700 patients", "value": "on average one week less"},
      {"measurement": "side effects attributable to B-OT", "setting": "[5]; four covid-19 pneumonia patients, 6 mg B-OT per day perorally for seven days", "value": "None of the patients showed side effects"},
      {"measurement": "need for intensive care", "setting": "[5]; four covid-19 pneumonia patients, 6 mg B-OT per day perorally for seven days plus standard therapy", "value": "none of the four patients required intensive care"},
      {"measurement": "need for respiratory support therapy beyond nasal cannula or mask oxygen insufflation", "setting": "[5]; four patients with additional B-OT therapy, versus overall collective of more than 700 patients", "value": "none of the four patients"},
      {"measurement": "lung computed tomography at follow-up", "setting": "[5]; patient 2, one month after the end of therapy", "value": "stable findings"}
    ]},
    {"compound": "Cc1ncc(C[n+]2csc(CCO)c2C)c(=O)[nH]1", "note": "[OT, oxythiamine]", "values": [
      {"measurement": "oxythiamine in the brain after B-OT is administered", "setting": "[6]", "value": "present in significant amounts in the brain"},
      {"measurement": "time of maximum OT plasma concentration (Tmax) after administration of B-OT", "setting": "[2]; Beagle dogs, oral B-OT, all applied doses", "value": "between one and two hours"},
      {"measurement": "systemic exposure to OT / B-OT", "setting": "[2]; dogs treated orally with B-OT", "value": "achieved in all animals"},
      {"measurement": "increase in plasma concentrations of oxythiamine (OT) with B-OT dose", "setting": "[2]; dogs, stepwise increase of B-OT dose from 0.2 mg/kg to 1.0 mg/kg", "value": "approximately linearly proportional to the increase in dose"},
      {"measurement": "increase in plasma OT based on dose-normalized Cmax and partial AUC", "setting": "[2]; male beagle dogs, oral B-OT single doses, over the range of applied doses", "value": "less than dose-proportional increase"}
    ]}
  ]
}
